Test results: patent publication US7704971B2, “Uracil reductase inactivators” (SmithKlineBeecham Corporation, priority 1990, dated 2010)

Tests used:
uracil reductase [1] = experiment: Inactivation of uracil reductase in vivo (plasma uracil and thymine), dogs
Experimental: (§1) The maximum effect occurred at about 0.1 mg/kg p.o. in rats, at 0.5 to 1 mg/kg s.c. in mice, and at approximately 1 mg/kg intravenously (i.v.) in dogs and probably represents total inactivation of uracil reductase. These doses elevated mouse, dog, and rat plasma uracil from about 3 uM to about 50-60 uM. […] The ED50 equals 0.01 mg/kg.

uracil reductase [2] = target: T1, uracil reductase (Rattus norvegicus, UniProt O89000); experiment: Inactivation of uracil reductase in vivo (plasma uracil and thymine), rats
T1 construct: from tissue; host or cells: whole animal (rat), endogenous enzyme
T1 sequence (O89000 1-1025): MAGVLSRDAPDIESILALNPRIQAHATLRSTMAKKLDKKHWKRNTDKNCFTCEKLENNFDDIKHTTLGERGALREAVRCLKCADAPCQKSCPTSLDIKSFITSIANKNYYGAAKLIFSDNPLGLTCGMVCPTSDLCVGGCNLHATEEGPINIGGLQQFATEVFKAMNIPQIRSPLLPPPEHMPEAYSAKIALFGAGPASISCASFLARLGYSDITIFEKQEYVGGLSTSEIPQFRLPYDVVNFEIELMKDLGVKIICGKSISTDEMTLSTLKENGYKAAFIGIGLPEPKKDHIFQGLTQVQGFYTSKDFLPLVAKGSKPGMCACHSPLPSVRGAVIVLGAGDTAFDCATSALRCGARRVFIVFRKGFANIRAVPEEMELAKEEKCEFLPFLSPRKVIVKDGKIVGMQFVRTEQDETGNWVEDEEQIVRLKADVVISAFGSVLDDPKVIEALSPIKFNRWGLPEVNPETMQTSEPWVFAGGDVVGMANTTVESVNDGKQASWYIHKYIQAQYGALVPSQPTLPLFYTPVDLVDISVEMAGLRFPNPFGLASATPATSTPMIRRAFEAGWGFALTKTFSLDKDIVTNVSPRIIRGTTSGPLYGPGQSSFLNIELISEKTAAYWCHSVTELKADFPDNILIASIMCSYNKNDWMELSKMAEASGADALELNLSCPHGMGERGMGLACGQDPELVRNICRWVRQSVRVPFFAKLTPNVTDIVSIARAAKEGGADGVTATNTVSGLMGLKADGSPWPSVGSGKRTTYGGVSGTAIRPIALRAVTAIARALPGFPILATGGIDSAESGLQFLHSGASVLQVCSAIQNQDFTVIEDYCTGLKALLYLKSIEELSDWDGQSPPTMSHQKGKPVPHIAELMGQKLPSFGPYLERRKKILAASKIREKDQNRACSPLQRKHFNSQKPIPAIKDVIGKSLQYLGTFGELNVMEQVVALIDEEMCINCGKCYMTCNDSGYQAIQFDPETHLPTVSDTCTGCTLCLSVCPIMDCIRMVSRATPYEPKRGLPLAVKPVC
Experimental: as §1

uracil reductase [3] = experiment: Inactivation of uracil reductase in vivo (plasma uracil and thymine), monkeys; settings: monkeys dosed with small amounts
Experimental: as §1

uracil reductase [4] = experiment: Return of plasma uracil to normal after EU (species not specified); assay type: in vivo; settings: after EU dose of maximum effect
Experimental: as §1

plasma uracil (uracil reductase [2]; rat, at dose of maximum effect, elevated from about 3 uM): 50 to 60 µM | ED50 (uracil reductase [2]; rat, oral doses, 4 hours after dosing, read-out: ED50 (increased plasma levels of uracil and thymine)): 0.01 mg/kg | dose at which the maximum effect on plasma uracil and thymine occurred (uracil reductase [2]; rats, p.o.): about 0.1 mg/kg
Compound: C#Cc1c[nH]c(=O)[nH]c1=O [5-ethynyluracil]
plasma uracil (uracil reductase [1]; dog, at dose of maximum effect, elevated from about 3 uM): 50 to 60 µM | dose at which the maximum effect on plasma uracil and thymine occurred (uracil reductase [1]; dogs, intravenously (i.v.)): approximately 1 mg/kg | plasma uracil and thymine levels (uracil reductase [3]): greatly elevated | half-life of plasma uracil decrease to normal (uracil reductase [4]): 10 h | time over which plasma uracil decreased to normal (uracil reductase [4]): 24 h
